Measurements from patent publication US9580487B2, “Method of treating stomach or bowel-related disorders by administering glucagon-like-peptide-2 (GLP-2) analogues” (Zealand Pharma A/S, priority 2005, dated 2017).
Entries after “also recorded” stand apart in the source; their conditions may differ. No end group written: not given here.

System: male C57BL mice
Assay: Screening for intestinal growth effects (small intestine and colon mass relative to body weight, small intestine-colon sensitivity index)
Format: in vivo
Conditions: for Preferential growth of small intestine versus colon (small intestine-colon sensitivity): relative to [Gly2]GLP-2; for colon mass relative to body weight, % [Gly2]GLP-2 / small intestine-colon sensitivity index, (SI/Colon)X/(SI/Colon)[Gly2]GLP-2 %: male C57BL mice, 30 nmol/kg s.c. twice daily for ten days; for small intestine-colon sensitivity index, (SI/Colon)X/(SI/Colon)[Gly2]GLP-2 %: third value column
Protocol: The ability of the present compounds to stimulate intestinal growth was determined in male C57BL mice. Individual groups (n=6) of mice were given 30 nmol/kg of each compound, s.c, twice daily for ten consecutive days. For comparison purposes other groups of animals were given either an equimolar dose of [Gly2]GLP-2 (SEQ ID NO:54) or vehicle (phosphate buffered saline, pH 7.4) in the same dosing regimen. Twenty-four hours after the last dose of compound had been given the mice were sacrificed and the small intestine (from the pylorus to the cecum) and the colon (intestine distal to cecum) was emptied and weighed. To correct for slight difference in body weight (BW), the organ mass of the small intestine (SI) and colon were expressed relative to BW. The non-selective reference compound [Gly2]GLP-2 (SEQ ID NO:54) has been reported to stimulate gastrointestinal growth in both esophagus, stomach, small intestine and colon and to evaluate differences in growth pattern induced by compounds, the small intestine-colon sensitivity index of compound X was calculated as:
(SI/Colon)X/(SI/Colon)[Gly2]GLP-2%
Compounds with a small intestine-colon sensitivity greater than or equal to 1.05 were considered relatively selective for the small intestine (Table 15).
Compounds with a small intestine-colon sensitivity smaller than or equal to 0.95 were considered relatively selective for the colon (Table 15).

[1] = 30 nmol/kg s.c. twice daily, ten days

Substance	Preferential growth of small intestine versus colon (small intestine-colon sensitivity) [1]	colon mass relative to body weight, % [Gly2]GLP-2	small intestine-colon sensitivity index, (SI/Colon)X/(SI/Colon)[Gly2]GLP-2 %	Small intestine mass relative to [Gly2]GLP-2 (30 nmol/kg s.c. twice daily, ten days, equimolar [Gly2]GLP-2)
[Gly2, Glu3, Leu10, Lys11, Ala16,24,28]hGLP-2(1-33)-(Lys)6-NH2 (HGEGSFSDELKTILDALAARDFIAWLIATKITDKKKKKK-NH2) [Compound 1850]	preferentially stimulating epithelial growth in the small intestine	89 % [Gly2]GLP-2	116 % [Gly2]GLP-2	
[Gly2, Glu3, Leu10, Lys11, Ala16,24,28]hGLP-2(1-33)-NH2 (HGEGSFSDELKTILDALAARDFIAWLIATKITD-NH2) [Compound 1859]	preferentially stimulating epithelial growth in the small intestine	73 % [Gly2]GLP-2	114 % [Gly2]GLP-2	
[Gly2, Glu3, Thr5, Leu10, Ala11,16,24,28]hGLP-2-(Lys)6-NH2 (HGEGTFSDELATILDALAARDFIAWLIATKITDKKKKKK-NH2) [Compound 1809]	preferentially stimulating epithelial growth in the small intestine			significant increase in the weight of the small intestine
[Gly2, Glu3, Thr5, Leu10, Lys11, Ala16,24,28]hGLP-2(1-33)-(Lys)6-NH2 (HGEGTFSDELKTILDALAARDFIAWLIATKITDKKKKKK-NH2) [Compound 1851]	preferentially stimulating epithelial growth in the small intestine	96 % [Gly2]GLP-2	114 % [Gly2]GLP-2	
[Gly2, Glu3, Thr5, Leu10, Ser11, Ala16,24,28]hGLP-2(1-33)-(Lys)6-NH2 (HGEGTFSDELSTILDALAARDFIAWLIATKITDKKKKKK-NH2) [Compound 1845]	preferentially stimulating epithelial growth in the small intestine	98 % [Gly2]GLP-2	107 % [Gly2]GLP-2	
[Gly2, Glu3, Thr5, Leu10, Ser11, Ala16,24,28]hGLP-2(1-33)-NH2 (HGEGTFSDELSTILDALAARDFIAWLIATKITD-NH2) [Compound 1854]	without preferential growth in small intestine or colon			
[Gly2, Glu3, Thr5, Ser8,11, Leu10, Ala16,24,28]hGLP-2(1-33)-(Lys)6-NH2 (HGEGTFSSELSTILDALAARDFIAWLIATKITDKKKKKK-NH2) [Compound 1844]	supplementary increase in the weight of the small intestine without significant effecting the weight of the colon; also recorded: preferentially stimulating epithelial growth in the small intestine	89 % [Gly2]GLP-2	119 % [Gly2]GLP-2	
[Gly2, Glu3, Thr5, Ser8,11, Leu10, Ala16,24,28]hGLP-2(1-33)-NH2 (HGEGTFSSELSTILDALAARDFIAWLIATKITD-NH2) [Compound 1853]	supplementary increase in the weight of the small intestine without significant effecting the weight of the colon; also recorded: preferentially stimulating epithelial growth in the small intestine	96 % [Gly2]GLP-2	105 % [Gly2]GLP-2	
[Gly2, Glu3, Thr5, Ser8, Leu10, Lys11, Ala16,24,28]hGLP-2(1-33)-NH2 [Compound 1852]	supplementary increase in the weight of the small intestine without significant effecting the weight of the colon; also recorded: preferentially stimulating epithelial growth in the small intestine	97 % [Gly2]GLP-2	109 % [Gly2]GLP-2	
[Gly2, Leu10, Ala24]hGLP-2-K6-NH2 (HGDGSFSDELNTILDNLAARDFIAWLIQTKITDKKKKKK-NH2) [Compound 1826]	preferentially stimulating epithelial growth in the small intestine			
[Gly2, Leu10, Lys11, Ala24]hGLP-2(1-30)-K6-NH2 [Compound 1821]	without preferential growth in small intestine or colon			
[Gly2, Leu10, Lys11, Ala24]hGLP-2(1-30)-NH2 (HGDGSFSDELKTILDNLAARDFIAWLIQTK-NH2) [Compound 1835]	preferentially stimulating epithelial growth in the colon	105 % [Gly2]GLP-2	91 % [Gly2]GLP-2	
[Gly2, Leu10, Ser8,11, Ala24]hGLP-2(1-30)-K6-NH2 [Compound 1829]	without preferential growth in small intestine or colon			
[Gly2, Leu10, Ser8,11, Ala24]hGLP-2(1-30)-NH2 (HGDGSFSSELSTILDNLAARDFIAWLIQTK-NH2) [Compound 1833]	without preferential growth in small intestine or colon			
[Gly2, Leu10, Ser11, Ala24]hGLP-2(1-30)-K6-NH2 [Compound 1819]	preferentially stimulating epithelial growth in the small intestine			
[Gly2, Leu10, Ser11, Ala24]hGLP-2(1-30)-NH2 (HGDGSFSDELSTILDNLAARDFIAWLIQTK-NH2) [Compound 1830]	preferentially stimulating epithelial growth in the colon	106 % [Gly2]GLP-2	94 % [Gly2]GLP-2	
[Gly2, Ser8, Leu10, Ala11,24]hGLP-2(1-30)-K6-NH2 [Compound 1818]	supplementary increase in the weight of the small intestine without significant effecting the weight of the colon; also recorded: preferentially stimulating epithelial growth in the small intestine			
[Gly2, Ser8, Leu10, Ala11,24]hGLP-2(1-30)-NH2 (HGDGSFSSELATILDNLAARDFIAWLIQTK-NH2) [Compound 1825]	without preferential growth in small intestine or colon			
[Gly2, Thr7, Leu10, Lys11, Ala24]hGLP-2(1-30)-K6-NH2 [Compound 1822]	without preferential growth in small intestine or colon			
[Gly2, Thr7, Leu10, Lys11, Ala24]hGLP-2(1-30)-NH2 (HGDGSFTDELKTILDNLAARDFIAWLIQTK-NH2) [Compound 1836]	preferentially stimulating epithelial growth in the colon	105 % [Gly2]GLP-2	90 % [Gly2]GLP-2	
[Gly2, Thr7, Leu10, Ser8,11, Ala24]hGLP-2(1-30)-K6-NH2 [Compound 1828]	without preferential growth in small intestine or colon			
[Gly2, Thr7, Leu10, Ser8,11, Ala24]hGLP-2(1-30)-NH2 (HGDGSFTSELSTILDNLAARDFIAWLIQTK-NH2) [Compound 1832]	without preferential growth in small intestine or colon			
[Gly2, Thr7, Leu10, Ser11, Ala24]hGLP-2(1-30)-K6-NH2 [Compound 1827]	preferentially stimulating epithelial growth in the small intestine			
[Gly2, Thr7, Leu10, Ser11, Ala24]hGLP-2(1-30)-NH2 (HGDGSFTDELSTILDNLAARDFIAWLIQTK-NH2) [Compound 1831]	preferentially stimulating epithelial growth in the colon	102 % [Gly2]GLP-2	88 % [Gly2]GLP-2	
[Gly2, Thr7, Ser8, Leu10, Lys11, Ala24]hGLP-2(1-30)-K6-NH2 [Compound 1823]	without preferential growth in small intestine or colon			
[Leu10, Ala11, Ala24]hGLP-2 (1-30)-NH2 [Compound 1841]	preferentially stimulating epithelial growth in the colon	126 % [Gly2]GLP-2	90 % [Gly2]GLP-2	
[Leu10, Ala11, Ala24]hGLP-2 (1-33)-K6-NH2 [Compound 1839]	preferentially stimulating epithelial growth in the colon	133 % [Gly2]GLP-2	84 % [Gly2]GLP-2	
[Leu10, Ala11, Ala24]hGLP-2 (1-33)-NH2 [Compound 1840]	preferentially stimulating epithelial growth in the colon	131 % [Gly2]GLP-2	86 % [Gly2]GLP-2	
